In brackets after ≈: the same amount, converted by molar mass.
Legend:
[1] = Inhibition of Francisella tularensis parE assessed as release of inorganic phosphate from ATP hydrolysis after 30 mins by coupled spectrophotometric assay
[2] = Inhibition of Francisella tularensis GyrB assessed as release of inorganic phosphate from ATP hydrolysis after 30 mins by coupled spectrophotometric assay
[3] = tested on: Escherichia coli; test: Antibacterial activity against Escherichia coli BW25113 harboring deltatolC by broth microdilution method; assay type: functional
[4] = tested on: Escherichia coli; test: Antibacterial activity against permeabilized Escherichia coli IBAS849 by broth microdilution method; assay type: functional
[5] = tested on: Escherichia coli; test: Antibacterial activity against wild type Escherichia coli ATCC 25922 by broth microdilution method; assay type: functional
[6] = tested on: Staphylococcus aureus; test: Antibacterial activity against Staphylococcus aureus ATCC 13709 by broth microdilution method; assay type: functional
[7] = Inhibition of Escherichia coli parE assessed as release of inorganic phosphate from ATP hydrolysis after 30 mins by coupled spectrophotometric assay
[8] = Inhibition of Escherichia coli GyrB assessed as release of inorganic phosphate from ATP hydrolysis after 30 mins by coupled spectrophotometric assay
[9] = tested on: Pseudomonas aeruginosa; test: Antibacterial activity against Pseudomonas aeruginosa PAO1 by broth microdilution method; assay type: functional
[10] = tested on: Acinetobacter baumannii; test: Antibacterial activity against Acinetobacter baumannii ATCC 19606 by broth microdilution method; assay type: functional; details: ATCC 19606 = CIP 70.34 = JCM 6841
[11] = tested on: Klebsiella pneumoniae; test: Antibacterial activity against Klebsiella pneumoniae ATCC 700603 by broth microdilution method; assay type: functional
[12] = tested on: Escherichia coli; test: Antibacterial activity against wild type Escherichia coli ATCC 25922 by broth microdilution method in presence of 20% mouse serum; assay type: functional
[13] = tested on: Haemophilus influenzae; test: Antibacterial activity against Haemophilus influenzae ATCC 49247 by broth microdilution method; assay type: functional
[14] = tested on: Streptococcus pneumoniae; test: Antibacterial activity against Streptococcus pneumoniae ATCC 51916 by broth microdilution method; assay type: functional
[15] = tested on: Staphylococcus aureus; test: Antibacterial activity against Staphylococcus aureus ATCC 13709 by broth microdilution method in presence of 20% mouse serum; assay type: functional

SMILES | Ki [1] | Ki [2] | MIC [3] | MIC [4] | MIC [5] | MIC [6] | Ki [7] | Ki [8] | MIC [9] | MIC [10] | MIC [11] | MIC [12] | MIC [13] | MIC [14] | MIC [15]
CCc1[nH]c2nc(Sc3cnc4nccnc4c3)nc(N3CC(N)C3)c2c1Cl | 5 nM | 7 nM | 4 µg/mL (≈ 9.69 µM) | 8 µg/mL (≈ 19.4 µM) | 64 µg/mL (≈ 155 µM) | 1 µg/mL (≈ 2.42 µM) |  |  |  |  |  |  |  |  | 
CCc1[nH]c2nc(Oc3cnc4cccnc4c3)nc(N3C[C@@H]4[C@@H](N)[C@@H]4C3)c2c1Cl | 0.6 nM |  | ≤ 0.06 µg/mL | 1 µg/mL (≈ 2.37 µM) | 4 µg/mL (≈ 9.48 µM) | ≤ 0.06 µg/mL | 0.9 nM | < 0.3 nM | 8 µg/mL (≈ 19 µM) | 4 µg/mL (≈ 9.48 µM) | 32 µg/mL (≈ 75.8 µM) | 4 µg/mL | 1 µg/mL (≈ 2.37 µM) | ≤ 0.06 µg/mL | 0.13 µg/mL
CCc1[nH]c2nc(Oc3cnc4ccc[n+]([O-])c4c3)nc(N3CC[C@@H](N)C3)c2c1Cl | 1.1 nM |  | 0.5 µg/mL (≈ 1.17 µM) | 1 µg/mL (≈ 2.35 µM) | 4 µg/mL (≈ 9.39 µM) | 0.13 µg/mL (≈ 0.305 µM) | 4.6 nM | < 0.3 nM | 16 µg/mL (≈ 37.6 µM) | 8 µg/mL (≈ 18.8 µM) | 32 µg/mL (≈ 75.1 µM) | 2 µg/mL | 4 µg/mL (≈ 9.39 µM) | 1 µg/mL (≈ 2.35 µM) | 0.13 µg/mL
CCc1[nH]c2nc(Sc3cnc4nccnc4c3)nc(N3CC(O)C3)c2c1Cl | 5 nM | 7 nM | 2 µg/mL (≈ 4.83 µM) | 4 µg/mL (≈ 9.66 µM) | > 64 µg/mL | 0.25 µg/mL (≈ 0.604 µM) |  |  |  |  |  |  |  |  | 
CCc1[nH]c2nc(Sc3cnc4cccnc4c3)nc(N3C[C@@H]4[C@@H](N)[C@@H]4C3)c2c1Cl | 0.6 nM |  | 0.25 µg/mL (≈ 0.571 µM) | 1 µg/mL (≈ 2.28 µM) | 4 µg/mL (≈ 9.13 µM) | ≤ 0.06 µg/mL | < 1 nM | < 0.3 nM | 8 µg/mL (≈ 18.3 µM) | 8 µg/mL (≈ 18.3 µM) | > 64 µg/mL | 8 µg/mL | 4 µg/mL (≈ 9.13 µM) | 0.13 µg/mL (≈ 0.297 µM) | 0.5 µg/mL
CCc1[nH]c2nc(Sc3cnc4nccnc4c3)nc(NC[C@H](C)O)c2c1Cl | 23 nM | 43 nM | 4 µg/mL (≈ 9.62 µM) | 8 µg/mL (≈ 19.2 µM) | > 64 µg/mL | 1 µg/mL (≈ 2.4 µM) |  |  |  |  |  |  |  |  | 
CCc1[nH]c2nc(Sc3cnc4ccc[n+]([O-])c4c3)nc(N3C[C@@H]4[C@@H](N)[C@@H]4C3)c2c1Cl | 2.5 nM |  | 0.13 µg/mL (≈ 0.286 µM) | 0.13 µg/mL (≈ 0.286 µM) | 2 µg/mL (≈ 4.41 µM) | 0.03 µg/mL (≈ 0.0661 µM) | 1.7 nM | < 0.3 nM | 4 µg/mL (≈ 8.81 µM) | 4 µg/mL (≈ 8.81 µM) | 32 µg/mL (≈ 70.5 µM) | 4 µg/mL | 2 µg/mL (≈ 4.41 µM) | 0.25 µg/mL (≈ 0.551 µM) | 0.13 µg/mL
CCc1[nH]c2nc(Oc3cncnc3)nc(N3C[C@@H]4[C@@H](N)[C@@H]4C3)c2c1Cl | 1.8 nM | < 0.3 nM | 2 µg/mL (≈ 5.38 µM) | 1 µg/mL (≈ 2.69 µM) | 4 µg/mL (≈ 10.8 µM) | 1 µg/mL (≈ 2.69 µM) | 3.4 nM | 0.4 nM | 32 µg/mL (≈ 86.1 µM) | 16 µg/mL (≈ 43 µM) | 64 µg/mL (≈ 172 µM) | 2 µg/mL | 4 µg/mL (≈ 10.8 µM) | 2 µg/mL (≈ 5.38 µM) | 2 µg/mL

— ChEMBL document CHEMBL2331254, “Pyrrolopyrimidine inhibitors of DNA gyrase B (GyrB) and topoisomerase IV (ParE), Part II: development of inhibitors with broad spectrum, Gram-negative antibacterial activity” (Bioorg Med Chem Lett, 2013)
